Data: patent publication US20210155990A1, “NF-KB REGULATED GENE EXPRESSION ASSAY FOR ASSESSING EFFICACY OF MALT1 INHIBITORS” (Janssen Pharmaceutica NV, priority 2019, published 2021)

Tests used:
[1] = test system: NF-κB proteins (p50 and RelB) in CLL cells; conditions: CLL cells treated in vitro; ELISA; cited from earlier work
[2] = test system: T cells (CD4+ and CD8+) in normal blood; test: CD69 expression on T cells, normal peripheral whole blood, anti-CD3/anti-CD28 stimulation (IFC); type: cell-based, human; conditions: 200 μM overnight, anti-CD3/anti-CD28 6 hours
Method: (§1) Both tubes were mixed well. The treated blood mixture was transferred at 3 mL per well to a 6-well polystyrene culture plate (Falcon, cat. #353046) and incubated overnight in a humidified incubator at 37° C. with 5% CO2.
(§2) The solution was mixed by pipetting with a 1 mL pipette. The plates were incubated in a humidified incubator at 37° C. with 5% CO2 for an additional 6 hours.
(§3) The next day, blood was treated with anti-CD3 and anti-CD28 stimulatory antibodies for 6 hours as described in Example 1 or left untreated. After treatment with the stimulatory antibodies, the red blood cells were lysed using multi-species lysis buffer, and the white blood cells were stained with anti-CD4 and anti-CD8 antibodies to label T cells and an anti-CD69 antibody to measure early T cell activation. Frequency of CD69-positive T cells (CD4+ and CD8+) was measured by IFC.

[3] = test system: T cells (CD4+ and CD8+) in NHL blood; test: CD69 expression on T cells, NHL peripheral whole blood, anti-CD3/anti-CD28 stimulation (IFC); type: cell-based, human; conditions: 200 μM overnight, anti-CD3/anti-CD28 6 hours
Method: as §1, §2, §3

[4] = test system: NF-κB (p50) nuclear translocation in T cells; test: NF-kB nuclear translocation in T cells from NHL whole blood by imaging flow cytometry (Example 4); type: cell-based, human
Method: as §2
Frozen or fresh cells treated with the experimental conditions were obtained. For example, T cells in blood samples could be activated and the PBMCs containing the activated T cells could be isolated using the method described in Example 1. Alternatively, PBMCs in blood samples could be activated and subject to the imaging flow cytometry analysis directly without isolation. If the samples were whole blood, a minimum of 1 mL of blood was used for each test in this experiment. However, less than 1 mL whole blood can also be used in the assay. […]
The samples were imaged on an AMNIS® […]® X Mark II imaging flow cytometer (MilliporeSigma, Burlington, Mass.) immediately, using 60× magnification, and the data was analyzed in IDEAS software using an internalization module, e.g., to evaluate frequency of CD4+ and CD8+ T cells or CLL cells with nuclear enrichment of p50.
The next day, the mixture samples were treated with anti-CD3 and anti-CD28 stimulatory antibodies following a procedure as that described in Example 1. […] Samples were analyzed on ImageStreamX to evaluate NF-κB nuclear localization in the CD4 and the CD8 positive T cells.

[5] = test system: NF-κB (p50) nuclear translocation in CD19-positive B (CLL) cells; test: NF-κB nuclear translocation in B cells from CLL PBMCs, anti-IgM 30 minutes (Example 5); type: cell-based, human; conditions: 6 hours compound
Method: Alternatively, B cells can also be activated by beads coated with anti-IgM antibody. After the stimulation, PBMCs were fixed using CytoFix buffer and permeabilized using 0.1% Triton X-100 solution. Cells were then stained with anti-CD19 to label B (CLL) cells, Hoechst 33342 to label nuclei, and anti-p105/p50 to label NF-κB subunit. Samples were analyzed on ImageStreamX to evaluate NF-κB nuclear localization in the CD19-positive cells. […] Statistical significance was determined using Student's t-test in Microsoft Excel.

[6] = test system: NF-κB (p50) nuclear translocation in B (CLL) cells; test: NF-κB nuclear translocation in B cells from CLL PBMCs, anti-IgM 6 hours (Example 6); type: cell-based, human; conditions: CLL PBMC, overnight compound
Method: Cells were then treated with anti-IgM or left untreated for 6 hours. After stimulation, PBMC were fixed using CytoFix buffer and permeabilized using 0.1% Triton X-100 solution. Cells were then stained with anti-CD19 to label B (CLL) cells, anti-CD4 and anti-CD8 to label T cells, Hoechst 33342 to label nuclei, and anti-p105/p50 to label NF-kB subunit. Samples were analyzed on ImageStreamX to evaluate NF-kB nuclear localization in B cells or T cells. […] Statistical significance was determined using Student's t-test in Microsoft Excel.

[7] = test system: IL2, an NF-κB regulated gene; test: IL2 expression in purified T-cells and PBMCs from NHL blood (Example 8); type: cell-based, human; conditions: T-cells and PBMC from NHL blood; 24 hours; anti-CD3/CD28 six hours
Method: The effect of a MALT inhibitor was analyzed utilizing gene expression signatures from purified T-cells and PBMCs from Non-Hodgkin's lymphoma patients. Peripheral blood was collected from five NHL patients, and the peripheral blood was allowed to stand overnight. Then, the peripheral blood was treated for 24 hours with a MALT inhibitor or DMSO control. The blood was then stimulated with monoclonal antibodies against CD3 and CD28 for six hours. Prior to stimulation and following stimulation, PBMC were purified from the treated blood using a ficoll density gradient and T-cells were purified using CD3 Beads (Miltenyi) using the manufacturers protocol. Purified cells were lysed in RLTplus (Qiagen) and RNA was extracted from the purified cells using an AllPrepkit (Qiagen). Gene expression was measured using 100 ng of RNA in the Pan-Cancer Immune Profiling kit (NanoString) according to the manufacturer's instructions.

[8] = test system: NF-κB2, TNFSF10, APOE, PYCARD expression; test: Gene expression in T-cells and PBMCs purified from NHL blood without stimulation (Example 9); type: cell-based, human; conditions: no stimulation, 24 hours
Method: Peripheral blood was collected from five NHL patients, and the peripheral blood was allowed to stand overnight. Then, the peripheral blood was treated for 24 hours with a MALT inhibitor or DMSO control. PBMCs were purified from the unstimulated blood using a ficoll density gradient and T-cells were purified using CD3 Beads (Miltenyi) using the manufacturers protocol. Purified cells were lysed in RLTplus (Qiagen) and RNA was extracted from the purified cells using an AllPrep kit (Qiagen). Gene expression was measured using 100 ng of RNA in the Pan-Cancer Immune Profiling kit (NanoString) according to the manufacturer's instructions. Gene expression signatures were compared between the MALT inhibitor treated and DMSO treated samples.

DLBCL cell lines = test: Growth of DLBCL cell lines in vitro (nonclinical studies); type: cell-based
[9] = test system: proteases, caspases, protein kinases, and G-protein-coupled receptors; test: Binding inhibition panel at single dose; conditions: single dose of either 1 μM or 10 μM
[10] = Oral bioavailability (description)
[11] = test system: MALT1 regulated gene expression in CLL whole blood; conditions: 200 μM 24 h, anti-CD3/CD28 four hours
Method: (§4) Peripheral blood was collected from three NHL and two CLL patients. […] Prior to stimulation and following stimulation, the treated blood was transferred into a PAXgene tube (Qiagen; Hilden, Germany) and RNA was extracted using the PAXgene RNA kit. Gene expression was measured using 100 ng of RNA extracted from the whole blood in the Pan-Cancer Immune Profiling kit (NanoString; Seattle, Wash.) according to the manufacturer's instructions.

[12] = test system: MALT1 regulated gene expression in NHL whole blood; conditions: 200 μM 24 h, anti-CD3/CD28 four hours
Method: as §4

[13] = test system: MALT1 regulated gene expression in NHL whole blood; conditions: 100 μM 2 h, PMA-stimulated samples
Method: Then, aliquots were stimulated with CD3 and CD28 antibodies (1 ug/ml each), PMA (20 ng/ml) and Ionomycin (1 μg/mL), or unstimulated (PBS) for four hours. Following stimulation, the treated blood was transferred into a PAXgene tube (Qiagen; Hilden, Germany) and RNA was extracted using the PAXgene RNA kit.
Gene expression was measured using 100 ng of RNA extracted from the whole blood in the Pan-Cancer Immune Profiling kit (NanoString; Seattle, Wash.) according to the manufacturer's instructions. Gene expression was normalized across samples using NanoString nSolver software. […] Briefly, log2-scaled, normalized NanoString counts were fit to a linear model (which incorporated the patient of origin) and moderated t-statistics, along with the associated Benjamini-Hochberg (BH) corrected p-values, were computed by empirical Bayes moderation of the standard errors towards a common value.

IC50 ([4]; Homo sapiens, T-cell, overnight, CD3/CD28 stimulation 6 h, read-out: IC50, NFκB nuclear translocation in T cells) [µM] | oral bioavailability [10] | SMILES | nuclear translocation of NF-κB proteins (p50 and RelB) [1] | surface expression of CD69 on CD4+ and CD8+ T cells [2] | surface expression of CD69 on T cells [3] | NFκB nuclear translocation in T cells (canonical NF-κB signaling) ([4]; CD3/CD28 stimulation, dosage dependent) | NF-κB nuclear translocation in activated B cells [5] | NF-κB nuclear translocation in B cells activated by anti-IgM [6] | stimulation induced upregulation of IL2 [7] | APOE expression ([8]; purified PBMCs) | PYCARD expression ([8]; purified PBMCs) | NF-κB2 expression ([8]; purified T-cells) | TNFSF10 expression ([8]; purified T-cells) | growth of CD79b-mutant DLBCL cell lines (DLBCL cell lines) | growth of ibrutinib-resistant DLBCL cell lines harboring BTK C481S or CARD11 mutations (DLBCL cell lines) | binding inhibition of proteases, caspases, protein kinases, and G-protein-coupled receptors [9] | stimulation induced upregulation of CXCL10 [11] | stimulation induced upregulation of CXCL10 [12] | gene expression of ICOS, POU2F2, CCR4, and CTLA4 [13] | genes upregulated [13]
– | – | COCCOc1nc(-c2ccc(Cl)c(Cl)c2)n(-c2ccc(NC(=O)CCl)cc2)n1 [MI-2] | suppress | – | – | – | – | – | – | – | – | – | – | – | – | – | – | – | – | –
~9.5 | orally bioavailable | O=C(Nc1ccnc(C(F)(F)F)c1)c1cnn(-c2cccc3c(=O)[nH]ccc23)c1C(F)(F)F [Compound A, 1-(1-oxo-1,2 dihydroisoquinolin-5-yl)-5 (trifluoromethyl)-N-[2 (trifluoromethyl)pyridin-4 yl]-1H-pyrazole-4 carboxamide] | – | not affected | significantly inhibited | completely blocked | inhibited | inhibited | repressed | repressed | repressed | repressed | repressed | inhibit growth | inhibit growth | did not show significant binding inhibition | repressed | repressed | downregulated | no genes were significantly upregulated
